Laboratory results: US12385900B2, “Method for evaluating cytotoxicity of gas” (DAIKIN INDUSTRIES, LTD., priority 2018, dated 2025)

What was measured:
[1] = test system: Human iPS cell-derived cardiomyocytes (iCell cardiomyocytes^2, CDI); assay: Cytotoxicity evaluation test: number of beats of cardiomyocytes during gas flow onto the cell culture medium; format: cell-based
Experimental: Human iPS cell-derived cardiomyocytes (iCell cardiomyocytes^2, CDI) were seeded into a 96-well half-area plate at a density of 40,000 cells/well, followed by culture in an incubator for 7 to 10 days. Subsequently, a Ca indicator (EarlyTox Cardiotoxicity Kit, Molecular Devices) was added at 30 μL/well to the cardiomyocytes. Subsequently, chlorodifluoromethane (Example) or difluoromethane (Reference Example) was allowed to flow onto the surface of the cell culture medium in a closed vessel at a flow rate of 50 mL/min. During the flow, the cell culture medium was maintained at a pH of 7.4, a temperature of 37° C., and an air pressure in the incubator of 101.3 kPa. The number of beats of cardiomyocytes from the start of the flow to 10 minutes after the start of the flow was measured by a fluorescence measurement with a confocal quantitative image cytometer (CQ1, Yokogawa Electric Corporation).

[2] = test system: heart; details: reported / known; cited from earlier work

SMILES | increase in the number of beats ([1]; 10 minutes after the start of the flow) [%] | Average number of beats (beats/30 sec) ([1]; exposure time 0 min (start of flow), gas flow 50 mL/min onto medium surface, pH 7.4, 37° C., 101.3 kPa) | Average number of beats (beats/30 sec) ([1]; exposure time 10 min, gas flow 50 mL/min onto medium surface, pH 7.4, 37° C., 101.3 kPa) | effects on the heart [2] | change in the number of beats of cardiomyocytes [1] | Average number of beats (beats/30 sec) ([1]; human, 0 min, pH 7.4) | Average number of beats (beats/30 sec) ([1]; human, 10 min, pH 7.4)
FC(F)Cl [chlorodifluoromethane] | 74 | 14.5 | 25.3 | has effects on the heart |  |  | 
FCF [difluoromethane] |  |  |  | no significant effects on the heart | almost no change | 16.1 | 16.5
